From patent publication US20180037595A1, “BENZOXABOROLE COMPOUNDS AND USES THEREOF” (GLAXOSMITHKLINE INTELLECTUAL PROPERTY (NO.2) LIMITED, priority 2015, published 2018) come the findings set out here.

By MIC is commonly meant the lowest concentration found to suppress growth.

In this assay the test system is M. tuberculosis clinical isolates. The assay is described as follows: MIC against clinical strains (BACTEC MGIT 960 System). Conditions: Mycobacterium tuberculosis. The format is cell-based.

For the molecule `Cl.NC[C@H]1OB2OCCOc3ccc(Cl)c1c32` [Example 4, (S)-(3-chloro-7,8-dihydro-2H-1,6,9-trioxa-9a-borabenzo[cd]azulen-2-yl)methanamine hydrochloride], the minimum inhibitory concentration (MIC) (strain 330, resistant clinical isolate, resistance HSR (Tables 2B, 2D)) worked out at 0.08 µM. For the molecule `NC[C@H]1OB2OCCOc3ccc(Cl)c1c32` [Example G4-CI], the MIC (against 85 of the 96 clinical isolate strains tested (sensitive and resistant)) is under 0.1 µM.
